Literature values, collected in US12589118B2, “Method of prolonging the lifespan of patients with cerebral autosomal dominant arteriopathy with subcortical infarcts and leukoencephalopathy (CADASIL) using a cerebrolysin® preparation” (EVER NEURO PHARMA GMBH, priority 2017, dated 2026).

What was measured:
[1] = transcranial Doppler
[2] = transcranial Doppler; remark: listed apart in the source
[3] = 200-400 mg bid in 24 months

SMILES: CC(C)c1c(C(=O)Nc2ccccc2)c(-c2ccccc2)c(-c2ccc(F)cc2)n1CC[C@@H](O)C[C@@H](O)CC(=O)O [Atorvastatin]
- effect on cerebral blood flow [1]: no effects

SMILES: N=C(N)NCCC[C@H](N)C(=O)O [L-arginine]
- vasoreactivity [2]: induced-vasoreactivity

SMILES: C[C@H](O)[C@H](O)[C@H]1CNc2nc(N)[nH]c(=O)c2N1 [Sapropterin]
- primary end-point: mean difference in reactive hyperaemia index (improvement of peripheral vasoreactivity) [3]: not significant
